Experimental data reported in patent publication US9790220B2, “Substituted cyclopentanes, tetrahydrofuranes and pyrrolidines as orexin receptor antagonists” (Takeda Pharmaceutical Company Limited, priority 2014, dated 2017).

Key:
human orexin receptor 1 = human orexin receptor 1 (Homo sapiens (Human), UniProt O43613); assay: Orexin antagonist activity, intracellular calcium FLIPR assay (orexin receptor 1); format: cell-based; conditions: RBL-2H3 cells stably expressing human orexin receptor 1; orexin-A at approx. 80% maximal response; 15 min preincubation; read-out: Human Orexin1R IC50
Description: (§1) Orexin antagonist activity was determined by measuring changes in intracellular calcium levels using a Ca^2+ sensitive fluorescent dye. The changes in fluorescent signal were monitored by Fluorescent Imaging Plate Reader (FLIPR™) technology available from Molecular Devices, LLC, U.S.A. Orexin mediated increases in intracellular Ca^2+ concentration were readily detected upon activation with orexin-A. Twenty-four hours prior to the assay, RBL-2H3 cells stably expressing either human orexin receptor 1 or human orexin receptor 2 were seeded in cell culture medium in black, clear-bottom 384-well plates (commercially available from Corning Inc., U.S.A.) and grown overnight at 37° C., 5% CO2. On the day of the assay, cell culture media was removed and cells were loaded with Calcium 5 Dye (commercially sold by Molecular Devices, LLC, U.S.A.) for 1 hour at 37° C., 5% CO2. Test compounds (at 10 point half log concentration response curves from 10 μM) were added to cells for 15 minutes prior to the addition of orexin-A to all wells, to achieve a final concentration that produces approximately an 80% maximal response. The IC50 values were determined from ten point concentration response curves. Curves were generated using the average of two wells for each data point. The results obtained are shown in the table below in which ‘NT’ denotes ‘Not Tested’.

human orexin receptor 2 = human orexin receptor 2 (Homo sapiens (Human), UniProt O43614); assay: Orexin antagonist activity, intracellular calcium FLIPR assay (orexin receptor 2); format: cell-based; conditions: RBL-2H3 cells stably expressing human orexin receptor 2; orexin-A at approx. 80% maximal response; 15 min preincubation; read-out: Human Orexin2R IC50
Description: as §1

human orexin receptor 2, sequence (O43614 whole entry): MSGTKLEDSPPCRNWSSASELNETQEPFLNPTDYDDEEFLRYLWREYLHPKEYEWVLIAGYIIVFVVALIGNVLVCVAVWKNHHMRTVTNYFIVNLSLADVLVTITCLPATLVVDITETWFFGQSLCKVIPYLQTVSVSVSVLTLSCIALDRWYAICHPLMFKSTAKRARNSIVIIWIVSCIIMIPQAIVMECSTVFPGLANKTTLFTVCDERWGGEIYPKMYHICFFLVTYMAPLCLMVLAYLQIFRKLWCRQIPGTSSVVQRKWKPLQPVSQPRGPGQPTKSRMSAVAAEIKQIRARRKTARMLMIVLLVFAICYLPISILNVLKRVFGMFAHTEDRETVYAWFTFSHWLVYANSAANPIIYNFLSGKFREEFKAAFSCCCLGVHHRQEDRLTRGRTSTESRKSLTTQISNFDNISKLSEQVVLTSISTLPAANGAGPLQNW
human orexin receptor 1, sequence (O43613 whole entry): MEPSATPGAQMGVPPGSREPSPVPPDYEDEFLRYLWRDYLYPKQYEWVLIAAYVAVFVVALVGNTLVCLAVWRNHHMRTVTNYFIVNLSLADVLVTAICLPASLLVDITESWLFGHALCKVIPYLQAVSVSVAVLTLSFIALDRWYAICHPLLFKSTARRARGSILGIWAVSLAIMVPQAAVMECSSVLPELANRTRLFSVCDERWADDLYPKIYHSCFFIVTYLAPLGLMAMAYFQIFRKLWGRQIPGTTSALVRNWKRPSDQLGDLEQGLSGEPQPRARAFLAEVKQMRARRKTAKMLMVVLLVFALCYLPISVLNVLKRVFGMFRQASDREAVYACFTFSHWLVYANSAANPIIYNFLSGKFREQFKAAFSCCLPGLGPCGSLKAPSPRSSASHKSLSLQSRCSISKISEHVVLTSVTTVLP

Row | IC50 (human orexin receptor 1) [nM] | IC50 (human orexin receptor 2) [nM] | SMILES
1 | 290 | > 10000 | O=C(N[C@H]1CCC[C@@H]1Nc1nc2ccc(F)cc2o1)c1ncccc1OC(F)F [Example 23, 3-(Difluoromethoxy)-N-[(1S,2S)-2-[(6-fluoro-1,3-benzoxazol-2-yl)amino]cyclopentyl]pyridine-2-carboxamide]
2 | 86 | > 10000 | O=C(N[C@H]1CCC[C@@H]1Nc1nc2ccc(F)cc2s1)c1ncccc1-n1ccnn1 [Example 24, N-[(1S,2S)-2-[(6-Fluoro-1,3-benzothiazol-2-yl)amino]cyclopentyl]-3-(1H-1,2,3-triazol-1-yl)pyridine-2-carboxamide]
3 | 33 | 3600 | O=C(N[C@H]1CCC[C@@H]1Nc1nc2ccc(F)cc2s1)c1ncccc1OC(F)(F)F [Example 19, N-[(1S,2S)-2-[(6-Fluoro-1,3-benzothiazol-2-yl)amino]cyclopentyl]-3-(trifluoromethoxy)pyridine-2-carboxamide]
4 | 300 | > 10000 | O=C(N[C@H]1CCC[C@@H]1Nc1nc2ccc(Cl)cc2s1)c1ncccc1OC(F)F [Example 22, N-[(1S,2S)-2-[(6-Chloro-1,3-benzothiazol-2-yl)amino]cyclopentyl]-3-(difluoromethoxy)pyridine-2-carboxamide]
5 | 24 | > 10000 | O=C(N[C@H]1CCC[C@@H]1Nc1nc2ccc(Cl)cc2s1)c1ncccc1-n1nccn1 [Example 21, N-[(1S,2S)-2-[(6-Chloro-1,3-benzothiazol-2-yl)amino]cyclopentyl]-3-(2H-1,2,3-triazol-2-yl)pyridine-2-carboxamide]
6 | 910 |  | CCOc1ccc(C)nc1C(=O)NC1CCCC1Cc1ccc2ccccc2n1 (stereo not drawn) [Example 26, 3-Ethoxy-6-methyl-N-[2-(quinolin-2-ylmethyl)cyclopentyl]pyridine-2-carboxamide]
7 | 660 | > 10000 | O=C(N[C@H]1CCC[C@@H]1Nc1nc2ccc(Cl)cc2o1)c1ncccc1OC(F)F [Example 25, N-[(1S,2S)-2-[(6-Chloro-1,3-benzoxazol-2-yl)amino]cyclopentyl]-3-(difluoromethoxy)pyridine-2-carboxamide]
8 | 100 | > 10000 | O=C(N[C@H]1CCC[C@@H]1Nc1nc2ccc(F)cc2s1)c1ncccc1OC(F)F [Example 20, 3-(Difluoromethoxy)-N-[(1S,2S)-2-[(6-fluoro-1,3-benzothiazol-2-yl)amino]cyclopentyl]pyridine-2-carboxamide]
9 | 71 | 6000 | CCOc1ccc(C)nc1C(=O)NC1CCCC1Cc1ccc2ccccc2n1 (stereo not drawn) [Example 27, 3-Ethoxy-6-methyl-N-[2-(quinolin-2-ylmethyl)cyclopentyl]pyridine-2-carboxamide]

The remaining lines, values behind:

Row | SMILES | IC50 (human orexin receptor 1) [nM] | IC50 (human orexin receptor 2) [nM]
10 | O=C(N[C@H]1CCC[C@@H]1Nc1nc2ccc(F)cc2s1)c1ncccc1-n1nccn1 [Example 6, N-[(1S,2S)-2-[(6-Fluoro-1,3-benzothiazol-2-yl)amino]cyclopentyl]-3-(2H-1,2,3-triazol-2-yl)pyridine-2-carboxamide] | 8.6 | > 10000
11 | O=C(N[C@H]1CCC[C@@H]1Nc1nc2ccc(F)cc2s1)c1ncccc1-n1cccn1 [Example 10, N-[(1S,2S)-2-[(6-Fluoro-1,3-benzothiazol-2-yl)amino]cyclopentyl]-3-(1H-pyrazol-1-yl)pyridine-2-carboxamide] | 21 | > 10000
12 | O=C(N[C@H]1CCC[C@@H]1Nc1nc2ccc(F)cc2s1)c1ncccc1N1CCCCC1 [Example 12, N-[(1S,2S)-2-[(6-Fluoro-1,3-benzothiazol-2-yl)amino]cyclopentyl]-3-(piperidin-1-yl)pyridine-2-carboxamide] | 42 | > 10000
13 | O=C(N[C@H]1CCC[C@@H]1Nc1nc2ccc(F)cc2s1)c1ncccc1Br [Example 1, 3-Bromo-N-[(1S,2S)-2-[(6-fluoro-1,3-benzothiazol-2-yl)amino]cyclopentyl]-pyridine-2-carboxamide] | 43 | > 10000
14 | CC(C)Oc1cccnc1C(=O)N[C@H]1CCC[C@@H]1Nc1nc2ccc(F)cc2s1 [Example 8, N-[(1S,2S)-2-[(6-Fluoro-1,3-benzothiazol-2-yl)amino]cyclopentyl]-3-(propan-2-yloxy)pyridine-2-carboxamide] | 34 | 3300
15 | COc1ccc(C)nc1C(=O)N[C@H]1CCC[C@@H]1Nc1nc2ccc(F)cc2s1 [Example 9, N-[(1S,2S)-2-[(6-Fluoro-1,3-benzothiazol-2-yl)amino]cyclopentyl]-3-methoxy-6-methylpyridine-2-carboxamide] | 84 | > 10000
16 | COc1cccnc1C(=O)N[C@H]1CCC[C@@H]1Nc1cnc2ccccc2n1 [Example 16, 3-Methoxy-N-[(1S,2S)-2-[(quinoxalin-2-yl)amino]cyclopentyl]pyridine-2-carboxamide] | 630 | 
17 | O=C(N[C@H]1CCC[C@@H]1Nc1nc2ccc(F)cc2s1)c1ncccc1F [Example 11, 3-Fluoro-N-[(1S,2S)-2-[(6-fluoro-1,3-benzothiazol-2-yl)amino]cyclopentyl]pyridine-2-carboxamide] | 330 | > 10000
18 | COc1ccc(C(F)(F)F)nc1C(=O)N[C@H]1CCC[C@@H]1Nc1nc2ccc(F)cc2s1 [Example 17, N-[(1S,2S)-2-[(6-Fluoro-1,3-benzothiazol-2-yl)amino]cyclopentyl]-3-methoxy-6-(trifluoromethyl)pyridine-2-carboxamide] | 210 | 9600
19 | CCOc1cccnc1C(=O)N[C@H]1CCC[C@@H]1Nc1nc2ccc(F)cc2s1 [Example 18, 3-Ethoxy-N-[(1S,2S)-2[(6-fluoro-1,3-benzothiazol-2-yl)amino]cyclopentyl]pyridine-2-carboxamide] | 41 | 8800
20 | COC1CN(c2cccnc2C(=O)N[C@H]2CCC[C@@H]2Nc2nc3ccc(F)cc3s2)C1 [Example 15, N-[(1S,2S)-2-[(6-Fluoro-1,3-benzothiazol-2-yl)amino]cyclopentyl]-3-(3-methoxyazetidin-1-yl)pyridine-2-carboxamide] | 150 | > 10000
21 | COc1cccnc1C(=O)N[C@H]1CCC[C@@H]1Nc1nc2ccc(F)cc2o1 [Example 7, N-[(1S,2S)-2-[(6-Fluoro-1,3-benzoxazol-2-yl)amino]cyclopentyl]-3-methoxypyridine-2-carboxamide] | 540 | > 10000
22 | COc1cccnc1C(=O)N[C@H]1CCC[C@@H]1Nc1nc2ccc(F)cc2s1 [Example 3, N-[(1S,2S)-2-[(6-Fluoro-1,3-benzothiazol-2-yl)amino]cyclopentyl]-3-methoxypyridine-2-carboxamide] | 170 | > 10000
23 | O=C(N[C@H]1CCC[C@@H]1Nc1nc2ccc(F)cc2s1)c1ncccc1N1CCCC1 [Example 14, N-[(1S,2S)-2-[(6-Fluoro-1,3-benzothiazol-2-yl)amino]cyclopentyl]-3-(pyrrolidin-1-yl)pyridine-2-carboxamide] | 170 | > 10000
24 | O=C(N[C@H]1CCC[C@@H]1Nc1nc2ccc(F)cc2s1)c1ncccc1N1CCC1 [Example 13, 3-(Azetidin-1-yl)-N-[(1S,2S)-2-[(6-fluoro-1,3-benzothiazol-2-yl)amino]cyclopentyl]pyridine-2-carboxamide] | 69 | > 10000
25 | COc1cccnc1C(=O)N(C)[C@H]1CCC[C@@H]1Nc1nc2ccc(F)cc2s1 [Example 5, N-[(1S,2S)-2-[(6-Fluoro-1,3-benzothiazol-2-yl)amino]cyclopentyl]-3-methoxy-N-methylpyridine-2-carboxamide] | 14 | 2800
